Several values for one entry are separate records, joined by “and”; a condition that tells them apart may be missing. Equal values may be shown once.
System: Vibrio cholerae
Assay: Colistin MIC against Vibrio cholerae strains
Format: cell-based

Measured: Colistin MIC

colistin
4 mg/L and 8 mg/L: V. cholerae strain 50-1, O antigen O-1
125 mg/L: V. cholerae strain 58-12, O antigen O-1 | V. cholerae strain 114/98931, O antigen O-1
4 mg/L: V. cholerae strain 51-2, O antigen O-1 | V. cholerae strain 52-4, O antigen O-1 | V. cholerae strain 57-11, O antigen O-139
8 mg/L and 4 mg/L: V. cholerae strain NRU-20461, O antigen O-139
31.5 mg/L: V. cholerae strain FMU-089933, O antigen O-139
8 mg/L: V. cholerae strain NRU-20455, O antigen O-139
>250 mg/L: V. cholerae strain 32-14, O antigen not given | V. cholerae strain 33-36, O antigen O-1 | V. cholerae strain 35-44, O antigen O-1 | V. cholerae strain 79-35, O antigen O-1 | V. cholerae strain 461/99053, O antigen O-1 | V. cholerae strain 781, O antigen O-1 | V. cholerae strain 1837, O antigen O-139 | V. cholerae strain M-702-3, O antigen O-1 | V. cholerae strain N16117, O antigen O-1 | V. cholerae strain N16861, O antigen O-1 | V. cholerae strain NG288/36, O antigen O-139 | V. cholerae strain NG368/36, O antigen O-139 | V. cholerae strain O-139 Argentina, O antigen O-139

— US20170211012A1, “METHOD OF […] FROM MICROBES” (priority 2014, published 2017)
